Test results as given in patent US10253039B2, “Inhibitors of bacterial DNA gyrase with efficacy against gram-negative bacteria” (priority 2014, dated 2019).
≈ marks a conversion by molar mass, not a printed value. Read-outs that look alike come from different tables or passages of the source.

How the values were obtained:
Type in all cases: cell-based
[1] = tested on: Salmonella enterica subsp. enterica typhimurium; experiment: MIC, 20-strain panel
In short: (§1)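 Each of the 20 strains is tested in LB at a 1:10000 dilution of a growing subculture. Compound is titrated 2-fold in three replicates; a DMSO column serves as vehicle control. After shaking incubation at 37° C. for 16-18 hours, MIC is taken as the lowest clear concentration.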

Streptococcus pyogenes = experiment: MIC, 20-strain panel
In short: as §1

E. coli JW5503 (deltolC) = experiment: MIC, 20-strain panel; details: Escherichia coli
In short: as §1

Streptococcus agalactiae = experiment: MIC, 20-strain panel
In short: as §1

Shigella flexneri = experiment: MIC, 20-strain panel
In short: as §1

E. coli MG1655 = experiment: MIC, 20-strain panel; details: Escherichia coli, read-out: MIC
In short: as §1

[2] = tested on: Staphylococcus aureus subsp. aureus; experiment: MIC, 20-strain panel; details: read-out: MIC
In short: as §1

[3] = tested on: Staphylococcus saprophyticus subsp. saprophyticus; experiment: MIC, 20-strain panel
In short: as §1

[4] = tested on: Klebsiella pneumoniae subsp. pneumoniae; experiment: MIC, 20-strain panel
In short: as §1

[5] = tested on: Staphylococcus epidermidis; experiment: MIC, 20-strain panel
In short: as §1

E. coli BW25113 = experiment: MIC, microdilution in 96-well plates; details: Escherichia coli, read-out: MIC
In short: as §1

Edwardsiella tarda = experiment: MIC, microdilution in 96-well plates
In short: as §1

[6] = F: Salmonella enterica subsp. enterica Typhimurium
[7] = H: Staphylococcus aureus subsp. aureus
[8] = E: Klebsiella pneumoniae subsp. pneumoniae
[9] = Salmonella enterica subsp. enterica Typhimurium
[10] = Staphylococcus aureus subsp. aureus
[11] = Klebsiella pneumoniae subsp. pneumoniae

SMILES: O=S(=O)(N[C@@H]1CCN(Cc2ccc(OC3CC3)cc2)C1)c1cc(C(F)(F)F)cc(C(F)(F)F)c1 [Compound 128]
- MIC [1, 6]: > 8 mg/L
- MIC (Streptococcus pyogenes): > 8 mg/L
- MIC (E. coli JW5503 (deltolC); C: E. coli JW5503 (deltolC)): 8 mg/L (≈ 15.7 µM)
- MIC (Streptococcus agalactiae): > 8 mg/L
- MIC (Shigella flexneri; G: Shigella flexneri): > 8 mg/L
- MIC (E. coli MG1655; MG1655, A: E. coli MG1655): > 8 mg/L
- MIC [2, 7]: > 8 mg/L
- MIC [3]: > 8 mg/L
- MIC [4, 8]: > 8 mg/L
- MIC [5]: > 8 mg/L
- MIC (E. coli BW25113; BW25113, B: E. coli BW25113): > 8 mg/L
- MIC (Edwardsiella tarda; D: Edwardsiella tarda): > 8 mg/L

SMILES: O=S(=O)(N[C@@H]1CCN(Cc2ccc3c(c2)OCCO3)C1)c1cccc(C(F)(F)F)c1 [Compound 60]
- MIC [1, 6]: > 8 mg/L
- MIC (Streptococcus pyogenes): > 8 mg/L
- MIC (E. coli JW5503 (deltolC); C: E. coli JW5503 (deltolC)): 8 mg/L (≈ 18.1 µM)
- MIC (Streptococcus agalactiae): > 8 mg/L
- MIC (Shigella flexneri; G: Shigella flexneri): > 8 mg/L
- MIC (E. coli MG1655; MG1655, A: E. coli MG1655): > 8 mg/L
- MIC [2, 7]: > 8 mg/L
- MIC [3]: > 8 mg/L
- MIC [4, 8]: > 8 mg/L
- MIC [5]: > 8 mg/L
- MIC (E. coli BW25113; BW25113, B: E. coli BW25113): > 8 mg/L
- MIC (Edwardsiella tarda; D: Edwardsiella tarda): > 8 mg/L

SMILES: N#Cc1cccc(S(=O)(=O)N[C@@H]2CCN(Cc3ccc(-n4ccnn4)cc3)C2)c1 [Compound 7]
- MIC [1, 6]: > 8 mg/L
- MIC (Streptococcus pyogenes): > 8 mg/L
- MIC (E. coli JW5503 (deltolC); C: E. coli JW5503 (deltolC)): 8 mg/L (≈ 19.6 µM)
- MIC (Streptococcus agalactiae): > 8 mg/L
- MIC (Shigella flexneri; G: Shigella flexneri): > 8 mg/L
- MIC (E. coli MG1655; MG1655, A: E. coli MG1655): > 8 mg/L
- MIC [2, 7]: > 8 mg/L
- MIC [3]: > 8 mg/L
- MIC [4, 8]: > 8 mg/L
- MIC [5]: > 8 mg/L
- MIC (E. coli BW25113; BW25113, B: E. coli BW25113): > 8 mg/L
- MIC (Edwardsiella tarda; D: Edwardsiella tarda): > 8 mg/L

SMILES: N#Cc1cccc(S(=O)(=O)N[C@@H]2CCN(Cc3ccc(OC4CCOCC4)cc3)C2)c1 [Compound 54]
- MIC [1, 6]: 8 mg/L (≈ 18.1 µM)
- MIC (Streptococcus pyogenes): > 8 mg/L
- MIC (E. coli JW5503 (deltolC); C: E. coli JW5503 (deltolC)): 2 mg/L (≈ 4.53 µM)
- MIC (Streptococcus agalactiae): > 8 mg/L
- MIC (Shigella flexneri; G: Shigella flexneri): > 8 mg/L
- MIC (E. coli MG1655; MG1655, A: E. coli MG1655): > 8 mg/L
- MIC [2, 7]: > 8 mg/L
- MIC [3]: > 8 mg/L
- MIC [4, 8]: > 8 mg/L
- MIC [5]: > 8 mg/L
- MIC (E. coli BW25113; BW25113, B: E. coli BW25113): > 8 mg/L
- MIC (Edwardsiella tarda; D: Edwardsiella tarda): > 8 mg/L

SMILES: O=S(=O)(N[C@@H]1CCN(Cc2ccc(OC3CC3)cc2)C1)c1ncc[nH]1 [Compound 130]
- MIC [1, 9]: ~8 mg/L (≈ 22.1 µM)
- MIC (Streptococcus pyogenes): > 8 mg/L
- MIC (E. coli JW5503 (deltolC); E. coli JW5503 (deltolC)): ~8 mg/L (≈ 22.1 µM)
- MIC (Streptococcus agalactiae): > 8 mg/L
- MIC (Shigella flexneri): > 8 mg/L
- MIC (E. coli MG1655; MG1655, E. coli MG1655): > 8 mg/L
- MIC [2, 10]: > 8 mg/L
- MIC [3]: > 8 mg/L
- MIC [4, 11]: > 8 mg/L
- MIC [5]: > 8 mg/L
- MIC (E. coli BW25113; BW25113, E. coli BW25113): > 8 mg/L
- MIC (Edwardsiella tarda): > 8 mg/L

SMILES: N#Cc1cccc(S(=O)(=O)N[C@@H]2CCN(Cc3ccc(-c4ccccc4Cl)cc3)C2)c1 [Compound 70]
- MIC [1, 6]: > 8 mg/L
- MIC (Streptococcus pyogenes): > 8 mg/L
- MIC (E. coli JW5503 (deltolC); C: E. coli JW5503 (deltolC)): 1 mg/L (≈ 2.21 µM)
- MIC (Streptococcus agalactiae): > 8 mg/L
- MIC (Shigella flexneri; G: Shigella flexneri): > 8 mg/L
- MIC (E. coli MG1655; MG1655, A: E. coli MG1655): > 8 mg/L
- MIC [2, 7]: > 8 mg/L
- MIC [3]: > 8 mg/L
- MIC [4, 8]: > 8 mg/L
- MIC [5]: 8 mg/L (≈ 17.7 µM)
- MIC (E. coli BW25113; BW25113, B: E. coli BW25113): > 8 mg/L
- MIC (Edwardsiella tarda; D: Edwardsiella tarda): > 8 mg/L

SMILES: Cc1ccc(C(F)(F)F)cc1S(=O)(=O)N[C@@H]1CCN(Cc2ccc(OC(C)C)cc2)C1 [Compound 183]
- MIC [1, 9]: 8 mg/L (≈ 17.5 µM)
- MIC (Streptococcus pyogenes): > 8 mg/L
- MIC (E. coli JW5503 (deltolC); E. coli JW5503 (deltolC)): 0.5 mg/L (≈ 1.1 µM)
- MIC (Streptococcus agalactiae): > 8 mg/L
- MIC (Shigella flexneri): > 8 mg/L
- MIC (E. coli MG1655; MG1655, E. coli MG1655): > 8 mg/L
- MIC [2, 10]: > 8 mg/L
- MIC [3]: > 8 mg/L
- MIC [4, 11]: > 8 mg/L
- MIC [5]: > 8 mg/L
- MIC (E. coli BW25113; BW25113, E. coli BW25113): > 8 mg/L
- MIC (Edwardsiella tarda): > 8 mg/L

SMILES: O=S(=O)(N[C@@H]1CCN(Cc2ccc(OC3CC3)cc2)C1)c1cnccc1Cl [Compound 169]
- MIC [1, 9]: > 8 mg/L
- MIC (Streptococcus pyogenes): > 8 mg/L
- MIC (E. coli JW5503 (deltolC); E. coli JW5503 (deltolC)): > 8 mg/L
- MIC (Streptococcus agalactiae): > 8 mg/L
- MIC (Shigella flexneri): > 8 mg/L
- MIC (E. coli MG1655; MG1655, E. coli MG1655): > 8 mg/L
- MIC [2, 10]: > 8 mg/L
- MIC [3]: > 8 mg/L
- MIC [4, 11]: > 8 mg/L
- MIC [5]: > 8 mg/L
- MIC (E. coli BW25113; BW25113, E. coli BW25113): > 8 mg/L
- MIC (Edwardsiella tarda): > 8 mg/L

SMILES: O=S(=O)(N[C@@H]1CCN(Cc2ccc(-c3ccncc3)cc2)C1)c1cccc(OC(F)(F)F)c1 [Compound 15]
- MIC [1, 6]: > 8 mg/L
- MIC (Streptococcus pyogenes): > 8 mg/L
- MIC (E. coli JW5503 (deltolC); C: E. coli JW5503 (deltolC)): 4 mg/L (≈ 8.38 µM)
- MIC (Streptococcus agalactiae): > 8 mg/L
- MIC (Shigella flexneri; G: Shigella flexneri): > 8 mg/L
- MIC (E. coli MG1655; MG1655, A: E. coli MG1655): > 8 mg/L
- MIC [2, 7]: > 8 mg/L
- MIC [3]: > 8 mg/L
- MIC [4, 8]: > 8 mg/L
- MIC [5]: > 8 mg/L
- MIC (E. coli BW25113; BW25113, B: E. coli BW25113): > 8 mg/L
- MIC (Edwardsiella tarda; D: Edwardsiella tarda): > 8 mg/L

SMILES: CC(C)Oc1ccc(CN2CC[C@@H](NS(=O)(=O)c3ccc4c(c3)CC(=O)N4C)C2)cc1 [Compound 179]
- MIC [1, 9]: > 8 mg/L
- MIC (Streptococcus pyogenes): > 8 mg/L
- MIC (E. coli JW5503 (deltolC); E. coli JW5503 (deltolC)): > 8 mg/L
- MIC (Streptococcus agalactiae): > 8 mg/L
- MIC (Shigella flexneri): > 8 mg/L
- MIC (E. coli MG1655; MG1655, E. coli MG1655): > 8 mg/L
- MIC [2, 10]: > 8 mg/L
- MIC [3]: > 8 mg/L
- MIC [4, 11]: > 8 mg/L
- MIC [5]: > 8 mg/L
- MIC (E. coli BW25113; BW25113, E. coli BW25113): > 8 mg/L
- MIC (Edwardsiella tarda): > 8 mg/L

SMILES: O=S(=O)(N[C@@H]1CCN(Cc2ccc(-c3cncnc3)cc2)C1)c1cccc(OC(F)(F)F)c1 [Compound 63]
- MIC [1, 6]: > 8 mg/L
- MIC (Streptococcus pyogenes): > 8 mg/L
- MIC (E. coli JW5503 (deltolC); C: E. coli JW5503 (deltolC)): 4 mg/L (≈ 8.36 µM)
- MIC (Streptococcus agalactiae): > 8 mg/L
- MIC (Shigella flexneri; G: Shigella flexneri): > 8 mg/L
- MIC (E. coli MG1655; MG1655, A: E. coli MG1655): > 8 mg/L
- MIC [2, 7]: > 8 mg/L
- MIC [3]: > 8 mg/L
- MIC [4, 8]: > 8 mg/L
- MIC [5]: > 8 mg/L
- MIC (E. coli BW25113; BW25113, B: E. coli BW25113): > 8 mg/L
- MIC (Edwardsiella tarda; D: Edwardsiella tarda): > 8 mg/L
